Measured values from patent US20260256925A1, “INDAZOLE DERIVATIVES AS ESTROGEN RECEPTOR DEGRADERS” (REGENTS OF THE UNIVERSITY OF MICHIGAN, priority 2022, published 2026).

Columns and labels:
[1] = target: T1, ERα_LBD (GST) (Homo sapiens, UniProt P03372); assay: IC50 measurements for binding to ERα_LBD (GST), LanthaScreen TR-FRET ERα competitive binding assay; conditions: Fluormone ES2 Green tracer, 60 min, read-out: ERα HTRF IC50
T1 construct: ERα_LBD (GST) protein: 4 nM; purchased ThermoFisher A15887
T1 sequence (P03372 311-547 limits assumed): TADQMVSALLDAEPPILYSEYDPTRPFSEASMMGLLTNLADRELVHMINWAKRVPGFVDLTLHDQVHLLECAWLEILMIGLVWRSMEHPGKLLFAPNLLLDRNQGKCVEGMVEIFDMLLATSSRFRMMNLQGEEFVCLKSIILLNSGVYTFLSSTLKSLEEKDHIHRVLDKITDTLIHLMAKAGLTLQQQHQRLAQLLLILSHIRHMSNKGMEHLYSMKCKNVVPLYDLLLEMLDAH
Method: In vitro Assay: IC50 Measurements for binding to ERα_LBD (GST)·
Final assay conditions: • 1. ERα_LBD (GST) protein: 4 nM • 2. Tb Anti-GST: 2 nM • 3. Fluormone ES2 Green tracer: 3 nM • 4. Incubation time: 60 min • 5. DMSO: 1% • 6. Assay buffer: Adding 1M DTT to Nuclear receptor Buffer K for final 5 mM DTT. • 7. ZPE: 1% DMSO • 8. HPE: 1 μM ARV_471 • 9. LanthaScreen® TR-FRET ERα Competitive Binding Assay (ThermoFisher, #A^15887)
100× Compound preparation: • 1) Cherry pick 2 μL 10 mM compound stock to column 1 of a 384 intermediate plate • 2) Add 18 μL DMSO to column 1 to dilute compound to 1 mM. • 3) Transfer 10 μL 1 mM compound to column 1 of a LDV plate. • 2) Add 6 μl DMSO to column 2-10 of the LDV plate. • 3) Compounds undergo 3-fold serial dilution (3 μL+6 μL) in DMSO. • 4) Transfer 120 nL compound solution to assay plate.
Prepare complete nuclear receptor buffer K by adding 1 M DTT to nuclear receptor buffer K for a final concentration of 5 mM DTT. Complete nuclear receptor buffer K must be prepared fresh daily. Prepare 2× protein solution using complete nuclear receptor buffer K containing 8 nM ERα_LBD (GST) and 4 nM Tb Anti-GST. Then, prepare 2× Fluormone ES2 Green tracer (6 nM) using complete nuclear receptor buffer K. Add 6 μL 2× Fluormone ES2 green tracer into a compound plate (PerkinElmer 6008289) by dragonfly with one-tips-addition. Subsequently, add 6 μL 2× protein solution into the plate. Briefly and gently mix the 384-well plate on a plate shaker and incubate at room temperature protected from light for 60 min. The plate is sealed with a cover to minimize evaporation. Read the plate at wavelengths of 520 nm and 495 nm. Calculate the TR-FRET ratio by dividing the emission signal at 520 nm by the emission signal at 495 nm. Generate a binding curve by plotting the emission ratio vs. the log [ligand]. To determine the IC50 value, fit the data using XL-fit for a sigmoidal dose-response.

[2] = target: T2, ER (Homo sapiens, UniProt P03372); assay: In-cell Western (ICW) ER degradation assay in MCF-7 cells; assay type: cell-based; conditions: for DC50: read-out: ER MCF7 ICW DC50
T2 construct: endogenous in cells; probably T47D or MCF-7
T2 sequence (P03372 1-595): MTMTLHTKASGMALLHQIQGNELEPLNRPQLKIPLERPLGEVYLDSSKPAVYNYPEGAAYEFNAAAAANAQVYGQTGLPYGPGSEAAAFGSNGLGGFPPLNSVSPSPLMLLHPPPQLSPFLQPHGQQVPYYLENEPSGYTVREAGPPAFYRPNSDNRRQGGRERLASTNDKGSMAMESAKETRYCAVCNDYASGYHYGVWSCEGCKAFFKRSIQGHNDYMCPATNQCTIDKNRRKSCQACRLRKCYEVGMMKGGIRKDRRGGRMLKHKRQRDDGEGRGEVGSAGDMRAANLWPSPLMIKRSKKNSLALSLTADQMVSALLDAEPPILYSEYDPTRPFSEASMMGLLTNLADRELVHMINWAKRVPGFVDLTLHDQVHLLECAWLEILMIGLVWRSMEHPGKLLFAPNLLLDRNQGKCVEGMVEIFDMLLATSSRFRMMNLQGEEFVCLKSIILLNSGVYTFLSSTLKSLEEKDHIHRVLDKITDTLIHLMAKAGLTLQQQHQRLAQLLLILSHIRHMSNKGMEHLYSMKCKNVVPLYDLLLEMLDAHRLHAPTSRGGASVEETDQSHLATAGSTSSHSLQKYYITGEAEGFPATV

[3] = target: T2, ER; assay: In-cell Western (ICW) ER degradation assay in T47D cells; assay type: cell-based; conditions: for Dmax: T47D, read-out: ER T47D ICW Dmax (%)
[4] = test system: MCF-7 cells; assay: CellTiter-Glo (CTG) cell proliferation assay in MCF-7 cells; assay type: cell-based; conditions: Homo sapiens, MCF7, 144 h, Day 6
From the text: (§1) CellTiter-Glo® (CTG) assays in MCF-7 and T47D cell lines.
(§2) In vitro Assay: MCF-7 and T47D CTG assay

[5] = test system: T47D cells; assay: CellTiter-Glo (CTG) cell proliferation assay in T47D cells; assay type: cell-based; conditions: Homo sapiens, 144 h, Day 6
From the text: as §1, §2

[6] = target: T3, CRBN/DDB1 (Homo sapiens, UniProt Q96SW2); assay type: binding; conditions: HTRF, Cy5-labeled Thalidomide probe
T3 construct: purchased Wuxi RP210521GA
Method: The binding potency was determined using HTRF assay technology (Perkin Elmer). Compounds were serially diluted in DMSO and 0.2 μL volume was transferred to white 384-well plate.

[7] = MCF7, read-out: ER MCF7 ICW Dmax (%)
[8] = MCF7, MCF-7 cells, 16 hrs, read-out: ER MCF7 ICW Dmax (%)

T3 sequence (Q96SW2 whole entry): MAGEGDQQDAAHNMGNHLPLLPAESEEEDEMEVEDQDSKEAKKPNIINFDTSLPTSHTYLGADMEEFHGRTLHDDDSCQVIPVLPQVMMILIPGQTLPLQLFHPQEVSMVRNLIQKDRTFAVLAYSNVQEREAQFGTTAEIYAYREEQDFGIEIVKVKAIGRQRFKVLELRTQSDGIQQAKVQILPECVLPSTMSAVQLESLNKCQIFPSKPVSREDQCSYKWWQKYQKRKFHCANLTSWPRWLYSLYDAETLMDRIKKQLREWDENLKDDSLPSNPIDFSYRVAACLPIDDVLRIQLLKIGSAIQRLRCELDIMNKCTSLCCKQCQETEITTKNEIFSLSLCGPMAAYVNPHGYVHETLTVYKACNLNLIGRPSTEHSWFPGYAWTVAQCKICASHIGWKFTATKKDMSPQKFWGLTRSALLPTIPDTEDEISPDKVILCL
T3 sequence (Q16531 whole entry partner): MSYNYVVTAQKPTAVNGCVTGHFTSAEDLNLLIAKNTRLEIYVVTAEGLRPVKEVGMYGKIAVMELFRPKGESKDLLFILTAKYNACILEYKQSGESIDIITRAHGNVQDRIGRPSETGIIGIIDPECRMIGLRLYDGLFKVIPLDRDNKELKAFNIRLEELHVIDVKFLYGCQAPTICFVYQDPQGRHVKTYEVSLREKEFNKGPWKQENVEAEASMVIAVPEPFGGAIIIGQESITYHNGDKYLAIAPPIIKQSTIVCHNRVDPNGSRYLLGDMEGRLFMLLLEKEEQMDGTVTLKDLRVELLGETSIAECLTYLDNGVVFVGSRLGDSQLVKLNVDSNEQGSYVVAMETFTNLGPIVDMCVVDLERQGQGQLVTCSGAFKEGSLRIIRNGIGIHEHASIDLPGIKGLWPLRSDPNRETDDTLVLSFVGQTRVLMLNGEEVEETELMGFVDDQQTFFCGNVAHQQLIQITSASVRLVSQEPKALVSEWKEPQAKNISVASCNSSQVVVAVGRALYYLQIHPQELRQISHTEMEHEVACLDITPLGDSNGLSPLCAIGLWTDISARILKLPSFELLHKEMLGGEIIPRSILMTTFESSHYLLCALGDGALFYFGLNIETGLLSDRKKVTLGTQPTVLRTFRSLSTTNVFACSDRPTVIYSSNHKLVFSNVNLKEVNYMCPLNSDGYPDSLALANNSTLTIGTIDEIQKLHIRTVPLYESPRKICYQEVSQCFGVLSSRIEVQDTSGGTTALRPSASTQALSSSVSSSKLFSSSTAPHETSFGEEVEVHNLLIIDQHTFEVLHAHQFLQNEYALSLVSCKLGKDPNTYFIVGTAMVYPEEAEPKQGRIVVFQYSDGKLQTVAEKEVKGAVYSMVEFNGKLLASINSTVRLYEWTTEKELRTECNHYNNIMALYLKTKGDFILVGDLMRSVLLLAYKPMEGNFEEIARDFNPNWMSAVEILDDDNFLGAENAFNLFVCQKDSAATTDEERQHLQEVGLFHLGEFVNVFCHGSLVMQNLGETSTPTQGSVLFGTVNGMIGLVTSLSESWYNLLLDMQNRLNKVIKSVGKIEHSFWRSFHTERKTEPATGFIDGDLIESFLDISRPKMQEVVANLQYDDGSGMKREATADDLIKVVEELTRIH

SMILES	IC50 [1] [nM]	Dmax [2, 7] [%]	DC50 ([2]; MCF-7 cells, 16 hrs) [nM]	DC50 ([3]; T47D cells, 16 hrs) [nM]	Dmax ([3]; T47D cells, 16 hrs) [%]	IC50 [4] [nM]	IC50 [5] [nM]	IC50 [6] [nM]	ER MCF7 ICW Dmax (%) ([2]; MCF-7 cells, 16 hrs)	ER T47D ICW Dmax (%) ([3]; T47D cells, 16 hrs)	Dmax [2, 8] [%]	Dmax [3] [%]
C[C@@H]1Cc2c(ccc3[nH]ncc23)C(c2ccc(N3CCC4(CC3)CC(CN3CCN5c6ccc7c(c6OC[C@H]5C3)CN([C@H]3CCC(=O)NC3=O)C7=O)C4)nc2)N1CC(F)(F)F (stereo in doubt) [Compound A26, (S)-3-((R)-7-((7-(5-((6R,8R)-8-methyl-7-(2,2,2-trifluoroethyl)-6,7,8,9-tetrahydro-3H-pyrazolo[4,3-f]isoquinolin-6-yl)pyridin-2-yl)-7-azaspiro[3.5]nonan-2-yl)methyl)-1-oxo-1,3,5,5a,6,7,8,9-octahydro-2H-pyrazino[1′,2′: 4,5][1,4]oxazino[2,3-e]isoindol-2-yl)piperidine-2,6-dione]	< 10	> 75	< 1	< 1	> 75	10 to 50	10 to 50	–	–	–	–	–
COc1cc(N2CCC(CN3CCN4c5ccc6c(c5OC[C@H]4C3)CN(C3CCC(=O)NC3=O)C6=O)CC2)ccc1[C@@H]1c2ccc3[nH]ncc3c2C[C@@H](C)N1CC(F)F (stereo partly drawn) [Compound A6, 3-((R)-7-((1-(4-((6S,8R)-7-(2,2-difluoroethyl)-8-methyl-6,7,8,9-tetrahydro-3H-pyrazolo[4,3-f]isoquinolin-6-yl)-3-methoxyphenyl)piperidin-4-yl)methyl)-1-oxo-1,3,5,5a,6,7,8,9-octahydro-2H-pyrazino[1′,2′:4,5][1,4]oxazino[2,3-e]isoindol-2-yl)piperidine-2,6-dione]	–	–	< 1	< 1	–	< 10	< 10	50 to 500	B (“B”: >50% and <75%)	B (“B”: >50% and <75%)	–	–
C[C@@H]1Cc2c(ccc3[nH]ncc23)[C@@H](c2ccc(N3CC4(CCC(CN5CCN6c7ccc8c(c7OC[C@H]6C5)CN([C@H]5CCC(=O)NC5=O)C8=O)CC4)C3)nc2)N1CC(F)(F)F [Compound A17, (S)-3-((R)-7-((2-(5-((6S,8R)-8-methyl-7-(2,2,2-trifluoroethyl)-6,7,8,9-tetrahydro-3H-pyrazolo[4,3-f]isoquinolin-6-yl)pyridin-2-yl)-2-azaspiro[3.5]nonan-7-yl)methyl)-1-oxo-1,3,5,5a,6,7,8,9-octahydro-2H-pyrazino[1′,2′: 4,5][1,4]oxazino[2,3-e]isoindol-2-yl)piperidine-2,6-dione]	< 10	> 75	< 1	< 1	> 75	> 50	10 to 50	–	–	–	–	–
C[C@@H]1Cc2c(ccc3[nH]ncc23)[C@H](c2ccc(N3CCC(CN4CCN5c6ccc7c(c6OC[C@H]5C4)CN([C@H]4CCC(=O)NC4=O)C7=O)CC3)nc2)N1CC(F)(F)F [Compound A19, (S)-3-((R)-7-((1-(5-((6R,8R)-8-methyl-7-(2,2,2-trifluoroethyl)-6,7,8,9-tetrahydro-3H-pyrazolo[4,3-f]isoquinolin-6-yl)pyridin-2-yl)piperidin-4-yl)methyl)-1-oxo-1,3,5,5a,6,7,8,9-octahydro-2H-pyrazino[1′,2′: 4,5][1,4]oxazino[2,3-e]isoindol-2-yl)piperidine-2,6-dione]	< 10	50 to 75	< 1	< 1	50 to 75	< 10	< 10	–	–	–	–	–
C[C@@H]1Cc2c(ccc3[nH]ncc23)[C@@H](c2ccc(N3CCC4(CC3)CC(CN3CCN5c6ccc7c(c6OC[C@H]5C3)CN([C@H]3CCC(=O)NC3=O)C7=O)C4)cn2)N1CC1(F)CC1 [Compound A4, (S)-3-((R)-7-((7-(6-((6S,8R)-7-((1-fluorocyclopropyl)methyl)-8-methyl-6,7,8,9-tetrahydro-3H-pyrazolo[4,3-f]isoquinolin-6-yl)pyridin-3-yl)-7-azaspiro[3.5]nonan-2-yl)methyl)-1-oxo-1,3,5,5a,6,7,8,9-octahydro-2H-pyrazino[1′,2′:4,5][1,4]oxazino[2,3-e]isoindol-2-yl)piperidine-2,6-dione]	< 10	–	< 1	< 1	> 75	–	–	< 50	–	–	50 to 75	–
C[C@@H]1Cc2c(ccc3[nH]ncc23)[C@@H](c2ccc(N3CCC4(CC3)CC(CN3CCN5c6ccc7c(c6OC[C@H]5C3)CN([C@H]3CCC(=O)NC3=O)C7=O)CO4)nc2)N1CC(F)(F)F (stereo partly drawn) [Compound A22, (3S)-3-((5aR)-7-((8-(5-((6S,8R)-8-methyl-7-(2,2,2-trifluoroethyl)-6,7,8,9-tetrahydro-3H-pyrazolo[4,3-f]isoquinolin-6-yl)pyridin-2-yl)-1-oxa-8-azaspiro[4.5]decan-3-yl)methyl)-1-oxo-1,3,5,5a,6,7,8,9-octahydro-2H-pyrazino[1′,2′:4,5][1,4]oxazino[2,3-e]isoindol-2-yl)piperidine-2,6-dione]	< 10	–	< 1	< 1	50 to 75	–	–	50 to 500	–	–	50 to 75	–
C[C@@H]1Cc2c(ccc3[nH]ncc23)[C@H](c2ccc(N3CCC4(CC3)CC(CN3CCN5c6ccc7c(c6OC[C@H]5C3)CN([C@H]3CCC(=O)NC3=O)C7=O)CO4)nc2)N1CC(F)(F)F (stereo partly drawn) [Compound A21, (3S)-3-((5aR)-7-((8-(5-((6R,8R)-8-methyl-7-(2,2,2-trifluoroethyl)-6,7,8,9-tetrahydro-3H-pyrazolo[4,3-f]isoquinolin-6-yl)pyridin-2-yl)-1-oxa-8-azaspiro[4.5]decan-3-yl)methyl)-1-oxo-1,3,5,5a,6,7,8,9-octahydro-2H-pyrazino[1′,2′: 4,5][1,4]oxazino[2,3-e]isoindol-2-yl)piperidine-2,6-dione]	< 10	> 75	< 1	< 1	> 75	< 10	10 to 50	–	–	–	–	–
C[C@@H]1Cc2c(ccc3[nH]ncc23)[C@@H](c2ccc(N3CCC(CN4CCN5c6cc7c(cc6OC[C@@H]5C4)C(=O)N([C@H]4CCC(=O)NC4=O)C7)CC3)nc2)N1CC(F)(F)F [Compound A24, (S)-3-((S)-3-((1-(5-((6S,8R)-8-methyl-7-(2,2,2-trifluoroethyl)-6,7,8,9-tetrahydro-3H-pyrazolo[4,3-f]isoquinolin-6-yl)pyridin-2-yl)piperidin-4-yl)methyl)-8-oxo-1,2,3,4,4a,5,8,10-octahydro-9H-pyrazino[1′,2′: 4,5][1,4]oxazino[2,3-f]isoindol-9-yl)piperidine-2,6-dione]	< 10	50 to 75	< 1	< 1	–	> 50	> 50	–	–	–	–	> 75
